# Laboratory results: ChEMBL document CHEMBL5143574, “Unraveling the anti-virulence potential and antifungal efficacy of 5-aminotetrazoles using the zebrafish model of disseminated candidiasis” (Eur J Med Chem, 2022)
# The source made the active and inactive calls. The rule behind the calls is not given here.
# Tested on: Candida albicans
# Experiment: Antifungal activity against Candida albicans SC5314 assessed as inhibition of fungal growth incubated for 24 hrs by broth microdilution assay
# Type: functional
# Details: not given
row,SMILES,MIC [µM]
1,c1ccc(Cn2nnc(Nc3ccccc3)n2)cc1,> 200
2,c1ccc(Nc2nnnn2CCC23CC4CC(CC(C4)C2)C3)cc1,> 200
3,c1ccc(Cn2nnnc2Nc2ccccc2)cc1,> 200
4,CCCn1nnnc1Nc1ccnc(Cl)n1,> 200
5,CN(C)CCCNc1nccc(Nc2nnnn2Cc2ccccc2)n1,> 200
6,c1ccc(Nc2nn[nH]n2)cc1,> 200
7,Clc1cccc(Nc2nnnn2Cc2ccccc2)c1,> 200
8,CCCn1nnc(Nc2ccccc2)n1,> 200
9,Clc1ccc(Nc2nnnn2Cc2ccccc2)cc1,> 200
10,O=Cc1ccc(Nc2nnnn2Cc2ccccc2)cc1,> 200
11,CCCn1nnnc1N,> 200
12,CCCn1nnc(N)n1,> 200
13,CC(=O)c1ccc(Nc2nnnn2Cc2ccccc2)cc1,> 200
14,c1ccc(Nc2nnnn2-c2ccccc2)cc1,194

# Tested on: not listed separately
# Experiment: Toxicity in zebrafish embryos assessed as toxic responses at 200 uM treated at 6 hpf and measured at 120 hpf by stereomicroscopic analysis
# Parameters: species or system Danio rerio
# Details: in vivo, 24 h
row,SMILES,Activity
1,c1ccc(Nc2nn[nH]n2)cc1,Non-Toxic

# Tested on: not listed separately
# Experiment: Toxicity in zebrafish embryos assessed as mortality treated at 6 hpf and measured at 120 hpf by stereomicroscopic analysis
# Parameters: species or system Danio rerio
# Details: in vivo
row,SMILES,LC50 [µM]
1,c1ccc(Cn2nnc(Nc3ccccc3)n2)cc1,> 200
2,c1ccc(Nc2nnnn2CCC23CC4CC(CC(C4)C2)C3)cc1,> 200
3,c1ccc(Cn2nnnc2Nc2ccccc2)cc1,> 200
4,CCCn1nnnc1Nc1ccnc(Cl)n1,> 200
5,CN(C)CCCNc1nccc(Nc2nnnn2Cc2ccccc2)n1,> 200
6,c1ccc(Nc2nn[nH]n2)cc1,> 200
7,Clc1cccc(Nc2nnnn2Cc2ccccc2)c1,> 200
8,CCCn1nnc(Nc2ccccc2)n1,> 200
9,Clc1ccc(Nc2nnnn2Cc2ccccc2)cc1,> 200
10,O=Cc1ccc(Nc2nnnn2Cc2ccccc2)cc1,> 200
11,CCCn1nnnc1N,> 200
12,CCCn1nnc(N)n1,> 200
13,CC(=O)c1ccc(Nc2nnnn2Cc2ccccc2)cc1,> 200

# Tested on: Candida albicans
# Experiment: Anti-virulence activity against Candida albicans SC5314 assessed as inhibition of fungal filamentation by measuring reduction in hyphae formation in Spider medium upto 10 uM incubated for 3 to 5 days by stereomicroscopic analysis
# Type: functional, organism-based
# Details: time 3-5 day
row,SMILES,Activity
1,c1ccc(Nc2nnnn2CCC23CC4CC(CC(C4)C2)C3)cc1,Active
2,c1ccc(Cn2nnnc2Nc2ccccc2)cc1,Active
3,CCCn1nnnc1Nc1ccnc(Cl)n1,Active

# Tested on: Candida albicans
# Experiment: Anti-virulence activity against Candida albicans SC5314 assessed as inhibition of fungal filamentation by measuring reduction in hyphae formation in Lee medium upto 10 uM incubated for 3 to 5 days by stereomicroscopic analysis
# Type: functional, organism-based
# Details: time 3-5 day
row,SMILES,Activity
1,c1ccc(Nc2nnnn2CCC23CC4CC(CC(C4)C2)C3)cc1,Active
2,c1ccc(Cn2nnnc2Nc2ccccc2)cc1,Active
3,CCCn1nnnc1Nc1ccnc(Cl)n1,Active

# Tested on: Candida albicans
# Experiment: Anti-virulence activity against Candida albicans SC5314 assessed as inhibition of fungal filamentation by measuring reduction in hyphae formation in YPS medium upto 10 uM incubated for 3 to 5 days by stereomicroscopic analysis
# Type: functional, organism-based
# Details: time 3-5 day
row,SMILES,Activity
1,c1ccc(Nc2nnnn2CCC23CC4CC(CC(C4)C2)C3)cc1,Active
2,c1ccc(Cn2nnnc2Nc2ccccc2)cc1,Active
3,CCCn1nnnc1Nc1ccnc(Cl)n1,Active

# Tested on: Candida albicans
# Experiment: Anti-virulence activity against Candida albicans SC5314 assessed as inhibition of fungal filamentation by measuring reduction in hyphae formation in SLAD medium upto 10 uM incubated for 3 to 5 days by stereomicroscopic analysis
# Type: functional, organism-based
# Details: time 3-5 day
row,SMILES,Activity
1,c1ccc(Nc2nnnn2CCC23CC4CC(CC(C4)C2)C3)cc1,Active
2,c1ccc(Cn2nnnc2Nc2ccccc2)cc1,Active
3,CCCn1nnnc1Nc1ccnc(Cl)n1,Active

# Tested on: Candida albicans
# Experiment: Anti-virulence activity against Candida albicans SC5314 assessed as inhibition of fungal filamentation by measuring reduction in hyphae formation in YPS plus uridine medium upto 10 uM incubated for 3 to 5 days by stereomicroscopic analysis
# Type: functional, organism-based
# Details: time 3-5 day
row,SMILES,Activity
1,c1ccc(Nc2nnnn2CCC23CC4CC(CC(C4)C2)C3)cc1,Active
2,c1ccc(Cn2nnnc2Nc2ccccc2)cc1,Active
3,CCCn1nnnc1Nc1ccnc(Cl)n1,Active

# Tested on: Candida albicans
# Experiment: Anti-virulence activity against Candida albicans SC5314 assessed as inhibition of fungal filamentation by measuring reduction in hyphae formation in GlcNAc medium upto 10 uM incubated for 3 to 5 days by stereomicroscopic analysis
# Type: functional, organism-based
# Details: time 3-5 day
row,SMILES,Activity
1,c1ccc(Nc2nnnn2CCC23CC4CC(CC(C4)C2)C3)cc1,Active
2,c1ccc(Cn2nnnc2Nc2ccccc2)cc1,Active
3,CCCn1nnnc1Nc1ccnc(Cl)n1,Active

# Tested on: Candida albicans
# Experiment: Anti-virulence activity against Candida albicans SC5314 assessed as inhibition of fungal filamentation by measuring reduction of hyphae formation in Lee medium at 1.3 uM incubated for 3 to 5 days by stereomicroscopic analysis
# Type: functional, organism-based
# Details: time 3-5 day
row,SMILES,Activity
1,c1ccc(Nc2nnnn2CCC23CC4CC(CC(C4)C2)C3)cc1,Active

# Tested on: Candida albicans
# Experiment: Anti-virulence activity against Candida albicans SC5314 assessed as inhibition of fungal filamentation by measuring reduction of hyphae formation in SLAD medium at 1.3 uM incubated for 3 to 5 days by stereomicroscopic analysis
# Type: functional, organism-based
# Details: time 3-5 day
row,SMILES,Activity
1,c1ccc(Nc2nnnn2CCC23CC4CC(CC(C4)C2)C3)cc1,Active

# Tested on: Candida albicans
# Experiment: Anti-virulence activity against Candida albicans SC5314 assessed as inhibition of fungal filamentation by measuring reduction of hyphae formation in YPS medium at 1.3 uM incubated for 3 to 5 days by stereomicroscopic analysis
# Type: functional, organism-based
# Details: time 3-5 day
row,SMILES,Activity
1,c1ccc(Nc2nnnn2CCC23CC4CC(CC(C4)C2)C3)cc1,Active

# Tested on: Candida albicans
# Experiment: Anti-virulence activity against Candida albicans SC5314 assessed as inhibition of fungal filamentation by measuring reduction of hyphae formation in YPS plus uridine medium at 1.3 uM incubated for 3 to 5 days by stereomicroscopic analysis
# Type: functional, organism-based
# Details: time 3-5 day
row,SMILES,Activity
1,c1ccc(Nc2nnnn2CCC23CC4CC(CC(C4)C2)C3)cc1,Active

# Tested on: Candida albicans
# Experiment: Anti-virulence activity against Candida albicans SC5314 assessed as inhibition of fungal filamentation by measuring reduction of hyphae formation in Spider medium at 1.3 uM incubated for 3 to 5 days by stereomicroscopic analysis
# Type: functional, organism-based
# Details: time 3-5 day
row,SMILES,Activity
1,c1ccc(Nc2nnnn2CCC23CC4CC(CC(C4)C2)C3)cc1,Active

# Tested on: Candida albicans
# Experiment: Anti-virulence activity against Candida albicans SC5314 assessed as inhibition of fungal filamentation by measuring reduction of hyphae formation in GlcNAc medium at 1.3 uM incubated for 3 to 5 days by stereomicroscopic analysis
# Type: functional, organism-based
# Details: time 3-5 day
row,SMILES,Activity
1,c1ccc(Nc2nnnn2CCC23CC4CC(CC(C4)C2)C3)cc1,Active

# Tested on: Candida albicans
# Experiment: Anti-virulence activity against Candida albicans SC5314 assessed as inhibition of fungal filamentation by measuring reduction of hyphae formation in RPMI medium at 1.3 uM incubated for 3 to 5 days by stereomicroscopic analysis
# Type: functional, organism-based
# Details: time 3-5 day
row,SMILES,Activity
1,c1ccc(Nc2nnnn2CCC23CC4CC(CC(C4)C2)C3)cc1,Active

# Tested on: Candida albicans
# Experiment: Anti-virulence activity against Candida albicans SC5314 assessed as inhibition of fungal filamentation by measuring reduction of hyphae formation in RPMI medium upto 10 uM incubated for 3 to 5 days by stereomicroscopic analysis
# Type: functional, organism-based
# Details: time 3-5 day
row,SMILES,Activity
1,c1ccc(Nc2nnnn2CCC23CC4CC(CC(C4)C2)C3)cc1,Active
2,c1ccc(Cn2nnnc2Nc2ccccc2)cc1,Active
3,CCCn1nnnc1Nc1ccnc(Cl)n1,Active

# Tested on: Candida albicans
# Experiment: Anti-virulence activity against 53-75 RFP expressing cells of Candida albicans M137 in hind brain of zebra fish embryo disseminated candidiasis model assessed as inhibition of fungal filamentation by measuring reduction of hyphae formation in the hind brain at 10 uM treated at 1 hr post-infection and measured on day 4 post infection by fluorescence microscopy
# Type: functional
# Details: M137, 96 h, time 4 day
row,SMILES,inhibition in vivo at 10 µM [%]
1,c1ccc(Nc2nnnn2CCC23CC4CC(CC(C4)C2)C3)cc1,100

# Tested on: not listed separately
# Experiment: Toxicity against zebrafish embryo infected with 53-75 RFP expressing cells of Candida albicans M137 assessed as mortality at 2.5 to 10 uM treated at 1 hr post-infection and measured on day 4 post-infection
# Parameters: species or system Danio rerio
# Details: 96 h, dose 2.5-10 µM, time 4 day
row,SMILES,Activity
1,c1ccc(Nc2nnnn2CCC23CC4CC(CC(C4)C2)C3)cc1,Non-Toxic
2,CCCn1nnnc1N,Non-Toxic

# Tested on: Candida albicans
# Experiment: Anti-virulence activity against Candida albicans SC5314 assessed as inhibition of fungal filamentation by measuring reduction in hyphae formation in Spider medium at 5 uM incubated for 3 to 5 days by stereomicroscopic analysis
# Type: functional, organism-based
# Details: time 3-5 day
row,SMILES,Activity
1,c1ccc(Cn2nnc(Nc3ccccc3)n2)cc1,Active
2,CCCn1nnc(Nc2ccccc2)n1,Active
3,O=Cc1ccc(Nc2nnnn2Cc2ccccc2)cc1,Active
4,CCCn1nnnc1N,Active
5,c1ccc(Nc2nnnn2-c2ccccc2)cc1,Active

# Tested on: Candida albicans
# Experiment: Anti-virulence activity against Candida albicans SC5314 assessed as inhibition of fungal filamentation by measuring reduction in hyphae formation in Lee medium at 5 uM incubated for 3 to 5 days by stereomicroscopic analysis
# Type: functional, organism-based
# Details: time 3-5 day
row,SMILES,Activity
1,c1ccc(Cn2nnc(Nc3ccccc3)n2)cc1,Active
2,CCCn1nnc(Nc2ccccc2)n1,Active
3,O=Cc1ccc(Nc2nnnn2Cc2ccccc2)cc1,Active
4,CCCn1nnnc1N,Active
5,c1ccc(Nc2nnnn2-c2ccccc2)cc1,Active

# Tested on: Candida albicans
# Experiment: Anti-virulence activity against Candida albicans SC5314 assessed as inhibition of fungal filamentation by measuring reduction in hyphae formation in YPS medium at 5 uM incubated for 3 to 5 days by stereomicroscopic analysis
# Type: functional, organism-based
# Details: time 3-5 day
row,SMILES,Activity
1,c1ccc(Cn2nnc(Nc3ccccc3)n2)cc1,Active
2,CCCn1nnc(Nc2ccccc2)n1,Active
3,O=Cc1ccc(Nc2nnnn2Cc2ccccc2)cc1,Active
4,CCCn1nnnc1N,Active
5,c1ccc(Nc2nnnn2-c2ccccc2)cc1,Active

# Tested on: Candida albicans
# Experiment: Anti-virulence activity against Candida albicans SC5314 assessed as inhibition of fungal filamentation by measuring reduction in hyphae formation in YPS plus uridine medium at 5 uM incubated for 3 to 5 days by stereomicroscopic analysis
# Type: functional, organism-based
# Details: time 3-5 day
row,SMILES,Activity
1,c1ccc(Cn2nnc(Nc3ccccc3)n2)cc1,Active
2,CCCn1nnc(Nc2ccccc2)n1,Active
3,O=Cc1ccc(Nc2nnnn2Cc2ccccc2)cc1,Active
4,CCCn1nnnc1N,Active
5,c1ccc(Nc2nnnn2-c2ccccc2)cc1,Active

# Tested on: Candida albicans
# Experiment: Anti-virulence activity against Candida albicans SC5314 assessed as inhibition of fungal filamentation by measuring reduction in hyphae formation in RPMI medium at 5 uM incubated for 3 to 5 days by stereomicroscopic analysis
# Type: functional, organism-based
# Details: time 3-5 day
row,SMILES,Activity
1,c1ccc(Cn2nnc(Nc3ccccc3)n2)cc1,Active
2,CCCn1nnc(Nc2ccccc2)n1,Active
3,O=Cc1ccc(Nc2nnnn2Cc2ccccc2)cc1,Active
4,CCCn1nnnc1N,Active
5,c1ccc(Nc2nnnn2-c2ccccc2)cc1,Active
